According to US10844057B2, “Process for preparing JAK inhibitors and intermediates thereof” (priority 2018, dated 2020):
Like-named read-outs stand apart in the source and are kept apart here.

Tests used:
Tyk2 = Tyk2 (Homo sapiens (Human), UniProt P29597); experiment: Biochemical JAK kinase assay (LanthaScreen), Tyk2; conditions: converted from pIC50 using Cheng-Prusoff; ATP 10 μM
Procedure: (§1) Assay 1: Biochemical JAK Kinase Assays
(§2) A panel of four LanthaScreen JAK biochemical assays (JAK1, 2, 3 and Tyk2) were carried in a common kinase reaction buffer (50 mM HEPES, pH 7.5, 0.01% Brij-35, 10 mM MgCl2, and 1 mM EGTA). Recombinant GST-tagged JAK enzymes and a GFP-tagged STAT1 peptide substrate were obtained from Life Technologies.
(§3) Serially diluted compounds were pre-incubated with each of the four JAK enzymes and the substrate in white 384-well microplates (Corning) at ambient temperature for 1 h. ATP was subsequently added to initiate the kinase reactions in 10 μL total volume, with 1% DMSO. […] Kinase reactions were allowed to proceed for 1 hour at ambient temperature before a 10 μL preparation of EDTA (10 mM final concentration) and Tb-anti-pSTAT1 (pTyr701) antibody (Life Technologies, 2 nM final concentration) in TR-FRET dilution buffer (Life Technologies) was added. The plates were allowed to incubate at ambient temperature for 1 h before being read on the EnVision reader (Perkin Elmer). Emission ratio signals (520 nm/495 nm) were recorded and utilized to calculate the percent inhibition values based on DMSO and background controls.
(§4) For dose-response analysis, percent inhibition data were plotted vs. compound concentrations, and IC50 values were determined from a 4-parameter robust fit model with the Prism software (GraphPad Software). Results were expressed as pIC50 (negative logarithm of IC50) and subsequently converted to pKi (negative logarithm of dissociation constant, Ki) using the Cheng-Prusoff equation.

[1] = system: IL-2 stimulated STAT5 phosphorylation in Tall-1 human T cell line; experiment: Inhibition of IL-2 stimulated pSTAT5 in Tall-1 T cells; type: cell-based
Procedure: Assay 2: Inhibition of IL-2 Stimulated pSTAT5 in Tall-1 T Cells
The potency of test compounds for inhibition of interleukin-2 (IL-2) stimulated STAT5 phosphorylation was measured in the Tall-1 human T cell line (DSMZ) using AlphaLisa.
Phosphorylated STAT5 was measured via the AlphaLISA SureFire Ultra pSTAT5 (Tyr694/699) kit (PerkinElmer).
Compounds were serially diluted in DMSO and dispensed acoustically to empty wells. Assay media (phenol red-free DMEM (Life Technologies) supplemented with 10% FBS (ATCC)) was dispensed (4 μL/well) and plates shaken at 900 rpm for 10 mins. Cells were seeded at 45,000 cells/well in assay media (4 μL/well), and incubated at 37° C., 5% CO2 for 1 hour, followed by the addition of IL-2 (R&D Systems; final concentration 300 ng/mL) in pre-warmed assay media (4 μL) for 30 minutes. […] The lysate was shaken at 900 rpm for 10 minutes at room temperature (RT). Phosphorylated STAT5 was measured via the pSTAT5 AlphaLisa kit (PerkinElmer). Freshly prepared acceptor bead mixture was dispensed onto lysate (5 μL) under green filtered <100 lux light. Plates were shaken at 900 rpm for 2 mins, briefly spun down, and incubated for 2 hrs at RT in the dark. Donor beads were dispensed (5 μL) under green filtered <100 lux light. Plates were shaken at 900 rpm for 2 minutes, briefly spun down, and incubated overnight at RT in the dark. Luminescence was measured with excitation at 689 nm and emission at 570 nm using an EnVision plate reader (PerkinElmer) under green filtered <100 lux light.
To determine the inhibitory potency of test compounds in response to IL-2, the average emission intensity of beads bound to pSTAT5 was measured in a human T cell line. IC50 values were determined from analysis of the inhibition curves of signal intensity versus compound concentration. Data are expressed as pIC50 (negative decadic logarithm IC50) values (mean±standard deviation).

JAK3 = JAK3 (Homo sapiens (Human), UniProt P52333); experiment: Biochemical JAK kinase assay (LanthaScreen), JAK3; conditions: converted from pIC50 using Cheng-Prusoff; ATP 1.6 μM
Procedure: as §1, §2, §3, §4

JAK2 = JAK2 (Homo sapiens (Human), UniProt O60674); experiment: Biochemical JAK kinase assay (LanthaScreen), JAK2; conditions: converted from pIC50 using Cheng-Prusoff; ATP 3 μM
Procedure: as §1, §2, §3, §4

JAK1 = JAK1 (Homo sapiens (Human), UniProt P23458); experiment: Biochemical JAK kinase assay (LanthaScreen), JAK1; conditions: converted from pIC50 using Cheng-Prusoff; ATP 25 μM
Procedure: as §1, §2, §3, §4

[2] = Lung and plasma exposure in mice after oral aspiration; type: in vivo; conditions: mouse, other: oral aspiration, 50 µg/animal; for Kp at 5 h: Balb/c, lung and plasma, lung ng/g to plasma ng/mL, mice, read-out: Lung to Plasma ratio at 5 hr; for concentration at 5 h: Balb/c mice, 1 mg/mL, 50 μL via oral aspiration
Procedure: Adult Balb/c mice from Harlan were used in the assay. […] Animals were placed in lateral recumbency post dose and monitored for full recovery from anesthesia before being returned to their home cage. Four hours later, animals were once again briefly anesthetized and challenged with either vehicle or IL-13 (0.03 μg total dose delivered, 50 μL total volume) via oral aspiration before being monitored for recovery from anesthesia and returned to their home cage. One hour after vehicle or IL-13 administration, whole blood and lungs were collected for both pSTAT6 detection in lung homogenates using a Perkin Elmer AlphaLISA® SureFire® Ultra™ HVp-STAT6 (Tyr641) assay kit and for total drug concentration analysis in both lung and plasma. Blood samples were centrifuged (Eppendorf centrifuge, 5804R) for 4 minutes at approximately 12,000 rpm at 4° C. to collect plasma. […] Plasma and lung levels of test compound were determined by LC-MS analysis against analytical standards constructed into a standard curve in the test matrix. A lung to plasma ratio was determined as the ratio of the lung concentration in ng/g to the plasma concentration in ng/mL at 5 hours.

[3] = system: TSLP-evoked TARC release in human peripheral blood mononuclear cells; experiment: Inhibition of TSLP-evoked TARC release in human peripheral blood mononuclear cells; type: cell-based; conditions: Homo sapiens, PBMC, 48 h, read-out: pIC50 ± st. dev., inhibition of TSLP-evoked TARC release (converted)
Source text: Assay 4: Inhibition of TSLP-Evoked TARC Release in Human Peripheral Blood Mononuclear Cells
Thymic stromal lymphopoietin (TSLP) and thymus and activation-regulated chemokine (TARC) are overexpressed in asthmatic airways, and correlate with disease severity. In the lungs, TSLP may be released by bronchial epithelial cells in response to allergens and viral infections. TSLP signals through an IL-7Rα/TSLPR heterodimer found in a broad range of tissues and cell types, including epithelial cells, endothelial cells, neutrophils, macrophages, and mast cells. The binding of TSLP to its receptor induces a conformational change that activates JAK1 and JAK2 to phosphorylate various transcription factors, including STAT3 and STAT5. In immune cells, this triggers a cascade of intracellular events that result in cell proliferation, anti-apoptosis, dendritic cell migration, and production of Th2 cytokines and chemokines. In peripheral blood mononuclear cells (PBMC), TSLP has a proinflammatory effect by activating myeloid dendritic cells to attract and stimulate T cells, a process mediated by the chemoattractant TARC.
The potencies of the test compounds were measured for inhibition of TARC release.
PBMC aliquots (previously isolated from whole blood and frozen in aliquots at −80° C.) from 3 to 5 donors were thawed at 37° C. and added dropwise to 40 mL pre-warmed, sterile-filtered, complete RPMI media in 50 mL Falcon tubes. Cells were pelleted and resuspended in complete media at 2.24×10^6 cells/mL. […] Cells were allowed to rest for 1 hour at 37° C. with 5% CO2.
Compounds were received as 10 mM stock solutions in DMSO. 3.7-fold serial dilutions were performed to generate 9 concentrations of test compound in DMSO at 300× the final assay test concentration. […] 95 μL of 0.2% DMSO in complete media was added to the untreated control wells. Cells were pre-treated with compound for 1 hour at 37° C. with 5% CO2 prior to stimulation.
Immediately prior to use, an aliquot was thawed and prepared at 20× the final assay concentration in complete media. 10 μL of 20×TSLP was added to each well of PBMC, for a final assay concentration of 10 ng/mL. 10 μL of complete media was added to the unstimulated control wells. Cells were stimulated in the presence of compound for 48 hours at 37° C. with 5% CO2.
Following stimulation, the cell culture supernatants were harvested and TARC levels were detected by enzyme-linked immunosorbent assay (ELISA), using Human CCL17/TARC Quantikine ELISA Kit (R&D Systems # DDN00) according to the manufacturer's instructions.
For dose response analysis, the log [test compound (M)] was plotted versus the percent response values for each donor, and IC50 values were determined using a nonlinear regression analysis with GraphPad Prism Software using the 4-parameter sigmoidal dose-response algorithm with variable slope. Data are expressed as mean pIC50 (negative decadic logarithm IC50) values calculated from pIC50 values of individual donors and rounded to one decimal place.

[4] = IL-2 300 ng/mL, pSTAT5 AlphaLisa, Tall-1 cells, read-out: Tall-1 pIC50 (converted)
[5] = lung, read-out: Lung Concentration (ng/g) at 5 hr
[6] = plasma, read-out: Plasma Concentration (ng/mL) at 5 hr
[7] = TALL-1, read-out: Tall-1 pIC50 (converted)

Chain of JAK1 (P23458 whole entry): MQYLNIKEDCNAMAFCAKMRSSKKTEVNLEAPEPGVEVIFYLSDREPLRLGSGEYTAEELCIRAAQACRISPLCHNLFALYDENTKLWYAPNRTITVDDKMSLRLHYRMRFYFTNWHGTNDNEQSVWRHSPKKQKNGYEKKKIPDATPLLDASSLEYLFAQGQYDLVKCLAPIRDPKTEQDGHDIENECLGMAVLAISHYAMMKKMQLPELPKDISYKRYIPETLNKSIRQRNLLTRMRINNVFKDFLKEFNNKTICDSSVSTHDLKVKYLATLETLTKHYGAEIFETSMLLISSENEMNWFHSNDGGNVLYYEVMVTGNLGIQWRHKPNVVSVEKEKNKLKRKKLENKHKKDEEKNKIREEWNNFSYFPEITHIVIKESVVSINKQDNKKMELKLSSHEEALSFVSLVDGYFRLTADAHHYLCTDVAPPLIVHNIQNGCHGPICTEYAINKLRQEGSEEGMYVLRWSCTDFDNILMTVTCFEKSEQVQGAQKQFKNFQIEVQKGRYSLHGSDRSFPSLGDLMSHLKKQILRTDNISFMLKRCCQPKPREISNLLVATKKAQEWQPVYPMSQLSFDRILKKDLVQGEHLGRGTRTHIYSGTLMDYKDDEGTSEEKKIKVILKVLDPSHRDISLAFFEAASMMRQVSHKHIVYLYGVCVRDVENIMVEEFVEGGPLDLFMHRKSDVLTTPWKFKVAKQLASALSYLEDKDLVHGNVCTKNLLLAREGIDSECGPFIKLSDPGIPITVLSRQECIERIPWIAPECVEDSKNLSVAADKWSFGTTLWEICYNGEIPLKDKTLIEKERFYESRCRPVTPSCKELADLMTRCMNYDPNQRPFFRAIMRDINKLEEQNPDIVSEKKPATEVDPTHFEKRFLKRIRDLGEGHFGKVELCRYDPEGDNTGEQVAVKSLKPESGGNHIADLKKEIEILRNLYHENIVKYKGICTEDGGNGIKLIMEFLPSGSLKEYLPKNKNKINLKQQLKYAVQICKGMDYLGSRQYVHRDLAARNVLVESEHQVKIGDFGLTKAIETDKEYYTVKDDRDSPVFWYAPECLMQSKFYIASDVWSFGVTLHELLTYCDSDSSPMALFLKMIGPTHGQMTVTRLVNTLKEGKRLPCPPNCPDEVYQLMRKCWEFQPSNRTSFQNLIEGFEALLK
Chain of Tyk2 (P29597 whole entry): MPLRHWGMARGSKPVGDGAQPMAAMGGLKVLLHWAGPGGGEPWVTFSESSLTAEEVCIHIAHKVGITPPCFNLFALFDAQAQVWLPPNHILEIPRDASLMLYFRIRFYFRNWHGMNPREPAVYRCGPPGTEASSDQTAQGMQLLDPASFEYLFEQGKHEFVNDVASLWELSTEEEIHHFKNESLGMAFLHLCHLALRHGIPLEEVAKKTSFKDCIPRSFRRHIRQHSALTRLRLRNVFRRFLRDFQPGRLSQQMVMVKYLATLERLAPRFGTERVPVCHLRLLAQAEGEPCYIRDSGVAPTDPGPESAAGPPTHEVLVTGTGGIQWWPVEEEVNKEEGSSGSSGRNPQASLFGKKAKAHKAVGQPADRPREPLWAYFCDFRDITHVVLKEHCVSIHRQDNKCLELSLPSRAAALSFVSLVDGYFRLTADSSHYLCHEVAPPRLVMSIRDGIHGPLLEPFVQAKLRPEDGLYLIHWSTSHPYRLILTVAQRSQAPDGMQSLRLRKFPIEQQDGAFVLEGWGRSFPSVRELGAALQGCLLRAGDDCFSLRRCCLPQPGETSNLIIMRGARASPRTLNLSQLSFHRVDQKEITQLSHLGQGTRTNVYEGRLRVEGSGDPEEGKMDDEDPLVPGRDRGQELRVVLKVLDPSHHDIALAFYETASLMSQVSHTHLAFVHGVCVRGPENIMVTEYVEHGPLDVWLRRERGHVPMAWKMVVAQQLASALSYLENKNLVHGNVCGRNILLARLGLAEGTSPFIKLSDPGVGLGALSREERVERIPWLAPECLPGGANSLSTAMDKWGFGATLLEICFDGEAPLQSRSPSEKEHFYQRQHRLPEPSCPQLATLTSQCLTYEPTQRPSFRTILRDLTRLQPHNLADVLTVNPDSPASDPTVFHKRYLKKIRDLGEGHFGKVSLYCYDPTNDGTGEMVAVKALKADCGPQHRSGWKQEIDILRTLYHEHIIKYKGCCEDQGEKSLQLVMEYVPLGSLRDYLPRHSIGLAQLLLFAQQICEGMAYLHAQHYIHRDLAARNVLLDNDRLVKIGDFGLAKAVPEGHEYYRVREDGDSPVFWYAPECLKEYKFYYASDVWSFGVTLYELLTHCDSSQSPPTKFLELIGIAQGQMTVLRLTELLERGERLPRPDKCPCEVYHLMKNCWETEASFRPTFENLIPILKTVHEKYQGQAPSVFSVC
Chain of JAK3 (P52333 whole entry): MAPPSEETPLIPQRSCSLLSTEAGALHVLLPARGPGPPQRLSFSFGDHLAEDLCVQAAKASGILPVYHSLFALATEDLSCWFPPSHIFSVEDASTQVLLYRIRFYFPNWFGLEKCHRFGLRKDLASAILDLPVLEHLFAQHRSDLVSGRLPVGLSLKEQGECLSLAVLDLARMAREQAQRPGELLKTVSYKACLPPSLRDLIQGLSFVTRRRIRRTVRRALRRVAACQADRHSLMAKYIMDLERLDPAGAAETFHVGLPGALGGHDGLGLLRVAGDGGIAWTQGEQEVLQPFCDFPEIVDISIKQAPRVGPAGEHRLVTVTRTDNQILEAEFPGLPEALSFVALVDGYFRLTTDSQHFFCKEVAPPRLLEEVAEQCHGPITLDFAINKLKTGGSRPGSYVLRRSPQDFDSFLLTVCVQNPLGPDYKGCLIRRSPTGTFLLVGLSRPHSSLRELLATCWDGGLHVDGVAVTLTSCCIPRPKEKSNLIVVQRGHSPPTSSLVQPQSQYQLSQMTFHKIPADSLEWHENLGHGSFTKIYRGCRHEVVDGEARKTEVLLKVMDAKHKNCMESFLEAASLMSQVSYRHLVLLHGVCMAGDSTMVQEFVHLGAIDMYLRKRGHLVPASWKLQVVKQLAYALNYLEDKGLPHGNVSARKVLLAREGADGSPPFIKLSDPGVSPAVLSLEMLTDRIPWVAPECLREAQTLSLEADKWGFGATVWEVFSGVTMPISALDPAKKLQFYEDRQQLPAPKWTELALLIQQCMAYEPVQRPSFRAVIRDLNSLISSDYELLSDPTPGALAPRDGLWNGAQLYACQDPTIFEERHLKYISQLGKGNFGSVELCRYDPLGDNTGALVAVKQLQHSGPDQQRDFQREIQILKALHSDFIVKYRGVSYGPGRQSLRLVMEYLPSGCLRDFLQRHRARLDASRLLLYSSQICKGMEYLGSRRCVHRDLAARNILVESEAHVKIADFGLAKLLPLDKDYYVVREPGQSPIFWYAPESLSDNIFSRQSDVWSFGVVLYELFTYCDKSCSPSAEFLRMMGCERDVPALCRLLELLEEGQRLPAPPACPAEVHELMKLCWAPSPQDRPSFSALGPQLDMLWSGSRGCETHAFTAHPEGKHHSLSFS
Chain of JAK2 (O60674 whole entry): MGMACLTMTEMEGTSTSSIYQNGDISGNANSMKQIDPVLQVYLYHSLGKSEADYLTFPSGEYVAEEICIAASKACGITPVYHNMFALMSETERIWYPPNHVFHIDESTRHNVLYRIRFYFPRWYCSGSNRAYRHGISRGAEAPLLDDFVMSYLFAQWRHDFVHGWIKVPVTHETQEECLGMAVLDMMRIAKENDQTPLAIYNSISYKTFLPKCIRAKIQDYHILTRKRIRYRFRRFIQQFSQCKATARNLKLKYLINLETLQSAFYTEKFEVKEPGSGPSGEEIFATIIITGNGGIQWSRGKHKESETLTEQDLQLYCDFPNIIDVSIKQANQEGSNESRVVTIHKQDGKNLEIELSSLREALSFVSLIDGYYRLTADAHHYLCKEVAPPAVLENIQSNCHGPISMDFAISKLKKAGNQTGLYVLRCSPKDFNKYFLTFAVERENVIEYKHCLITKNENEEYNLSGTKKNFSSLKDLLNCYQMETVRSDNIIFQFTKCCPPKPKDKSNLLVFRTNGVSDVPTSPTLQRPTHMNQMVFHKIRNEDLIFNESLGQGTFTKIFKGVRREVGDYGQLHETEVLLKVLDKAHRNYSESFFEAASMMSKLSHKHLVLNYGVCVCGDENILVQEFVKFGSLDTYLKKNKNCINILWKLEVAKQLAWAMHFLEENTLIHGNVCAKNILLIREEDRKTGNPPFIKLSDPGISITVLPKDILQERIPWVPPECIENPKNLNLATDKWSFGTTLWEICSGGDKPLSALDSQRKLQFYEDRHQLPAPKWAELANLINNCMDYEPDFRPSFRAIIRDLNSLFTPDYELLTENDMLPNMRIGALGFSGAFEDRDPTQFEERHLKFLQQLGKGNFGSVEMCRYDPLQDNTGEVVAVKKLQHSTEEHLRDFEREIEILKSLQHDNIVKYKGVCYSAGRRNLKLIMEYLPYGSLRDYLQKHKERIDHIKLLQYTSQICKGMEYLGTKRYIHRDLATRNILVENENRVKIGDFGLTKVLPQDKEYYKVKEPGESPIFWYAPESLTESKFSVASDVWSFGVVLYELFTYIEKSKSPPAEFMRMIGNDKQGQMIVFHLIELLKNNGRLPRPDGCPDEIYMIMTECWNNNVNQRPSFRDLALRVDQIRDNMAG

## CCc1cc(O)ccc1-c1ccc2c(-c3nc4c([nH]3)CN(CC)[C@H](C(=O)N3CC(C)(N(C)C)C3)C4)n[nH]c2c1 [Example 10, (S)-(3-(dimethylamino)-3-methylazetidin-1-yl)(5-ethyl-2-(6-(2-ethyl-4-hydroxyphenyl)-1H-indazol-3-yl)-4,5,6,7-tetrahydro-3H-imidazo[4,5-c]pyridin-6-yl)methan One]
Tyk2
  Tyk2 pKi: 9.1
[1]; [4]
  IC50: 2.51 nM
JAK3
  JAK3 pKi: 10.2
JAK2
  JAK2 pKi: 10.6
JAK1
  JAK1 pKi: 10.4
[2]
  Kp at 5 h: 216
[2]; [5]
  concentration at 5 h: 5130 ± 2200 ng/g
[2]; [6]
  concentration at 5 h: 24 ± 6 ng/mL

## CCCN1Cc2[nH]c(-c3n[nH]c4cc(-c5ccc(O)cc5CC)ccc34)nc2C[C@H]1C(=O)N1CC(C)(N(C)C)C1 [Example 13, (S)-(3-(dimethylamino)-3-methylazetidin-1-yl)(2-(6-(2-ethyl-4-hydroxyphenyl)-1H-indazol-3-yl)-5-propyl-4,5,6,7-tetrahydro-3H-imidazo[4,5-c]pyridin-6-yl)methan One]
Tyk2
  Tyk2 pKi: 9.0
[1]; [4]
  IC50: 2.51 nM
JAK3
  JAK3 pKi: 9.8
JAK2
  JAK2 pKi: 10.5
JAK1
  JAK1 pKi: 10.3
[2]
  Kp at 5 h: 330
[2]; [5]
  concentration at 5 h: 7460 ± 3080 ng/g
[2]; [6]
  concentration at 5 h: 23 ± 2.5 ng/mL

## CCc1cc(O)ccc1-c1ccc2c(-c3nc4c([nH]3)CN(C(C)C)[C@H](C(=O)N3CC[C@H](N(C)C)C3)C4)n[nH]c2c1 [Example 6, ((S)-3-(dimethylamino)pyrrolidin-1-yl)((S)-2-(6-(2-ethyl-4-hydroxyphenyl)-1H-indazol-3-yl)-5-isopropyl-4,5,6,7-tetrahydro-3H-imidazo[4,5-c]pyridin-6-yl)methan One]
[3]
  IC50: 158 nM
[1]; [7]
  IC50: 2 nM

## CCCN1Cc2[nH]c(-c3n[nH]c4cc(-c5ccc(O)cc5CC)ccc34)nc2C[C@H]1C(=O)N1CC(N(C)C)C1 [Example 12, (S)-(3-(dimethylamino)azetidin-1-yl)(2-(6-(2-ethyl-4-hydroxyphenyl)-1H-indazol-3-yl)-5-propyl-4,5,6,7-tetrahydro-3H-imidazo[4,5-c]pyridin-6-yl)methan One]
Tyk2
  Tyk2 pKi: 9.0
[1]; [4]
  IC50: 2 nM
JAK3
  JAK3 pKi: 10.3
JAK2
  JAK2 pKi: 10.6
JAK1
  JAK1 pKi: 10.5
[2]
  Kp at 5 h: 281
[2]; [5]
  concentration at 5 h: 6940 ± 4250 ng/g
[2]; [6]
  concentration at 5 h: 25 ± 9 ng/mL

## CCc1cc(O)ccc1-c1ccc2c(-c3nc4c([nH]3)CN(C(C)C)[C@H](C(=O)N3CCCN(C)CC3)C4)n[nH]c2c1 [Example 4, (S)-(2-(6-(2-ethyl-4-hydroxyphenyl)-1H-indazol-3-yl)-5-isopropyl-4,5,6,7-tetrahydro-3H-imidazo[4,5-c]pyridin-6-yl)(4-methyl-1,4-diazepan-1-yl)methanone]
[3]
  IC50: 158 nM
[1]; [7]
  IC50: 2.51 nM

## CCc1cc(O)ccc1-c1ccc2c(-c3nc4c([nH]3)CN(CC)[C@H](C(=O)N3CC(N(C)C)C3)C4)n[nH]c2c1 [Example 9, (S)-(3-(dimethylamino)azetidin-1-yl)(5-ethyl-2-(6-(2-ethyl-4-hydroxyphenyl)-1H-indazol-3-yl)-4,5,6,7-tetrahydro-3H-imidazo[4,5-c]pyridin-6-yl)methanone]
Tyk2
  Tyk2 pKi: 9.2
[1]; [4]
  IC50: 2 nM
JAK3
  JAK3 pKi: 10.3
JAK2
  JAK2 pKi: 10.7
JAK1
  JAK1 pKi: 10.3
[2]
  Kp at 5 h: 339
[2]; [5]
  concentration at 5 h: 7750 ± 1650 ng/g
[2]; [6]
  concentration at 5 h: 23 ± 6 ng/mL

## CCc1cc(O)ccc1-c1ccc2c(-c3nc4c([nH]3)CN(C(C)C)[C@H](C(=O)N3CC(C)(N(C)C)C3)C4)n[nH]c2c1 [Example 11, (S)-(3-(dimethylamino)-3-methylazetidin-1-yl)(2-(6-(2-ethyl-4-hydroxyphenyl)-1H-indazol-3-yl)-5-isopropyl-4,5,6,7-tetrahydro-3H-imidazo[4,5-c]pyridin-6-yl)methan One]
Tyk2
  Tyk2 pKi: 9.1
[1]; [4]
  IC50: 2 nM
JAK3
  JAK3 pKi: 9.9
JAK2
  JAK2 pKi: 10.8
JAK1
  JAK1 pKi: 10.0
[2]
  Kp at 5 h: 271
[2]; [5]
  concentration at 5 h: 15000 ± 3350 ng/g
[2]; [6]
  concentration at 5 h: 55 ± 21 ng/mL
